Molecular target: T1, His-EBNA1 (DNA binding domain of EBNA1, amino acids 459-607) (Epstein-Barr virus, UniProt P03211)
T1 construct: made in house; host or cells: E. coli
Test: Inhibition of 5′-biotin-oPL4624 binding to His-EBNA1 using Alpha Screen technology
Conditions: Alpha Screen Activity (IC50, inhibition of 5′-biotin-oPL4624 binding to His-EBNA1), 15 nM His-EBNA1, 0.2 nM bt-oPL4624, 2 hr room temperature
Method in brief: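 AlphaScreen signal (680 nm ex, 570 nm em) after a 2-h room-temperature incubation, normalized to no-EBNA1 (100% inhibition) and EBNA1 (0%) values and fit to a one-site curve. Final conditions: 15 nM His-EBNA1 (aa 459-607), 0.2 nM bt-oPL4624, Tris pH 7.2 buffer with 160 mM NaCl, compound 3.2 nM to 100 μM.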

T1 sequence (P03211 459-607): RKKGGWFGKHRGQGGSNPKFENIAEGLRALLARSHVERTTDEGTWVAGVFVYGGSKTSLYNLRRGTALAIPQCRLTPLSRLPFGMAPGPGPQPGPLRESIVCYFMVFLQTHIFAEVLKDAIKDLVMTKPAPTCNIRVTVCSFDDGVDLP

Row | SMILES | IC50
1 | COc1cccc(-c2cn(-c3c(C#Cc4ccccc4)cccc3C(=O)O)nn2)c1 [Entry 110, 2-(4-(3-methoxyphenyl)-1H-1,2,3-triazol-1-yl)-3-(phenylethynyl)benzoic acid] | 10 to 100 µM
2 | O=C(O)c1cccc(C#Cc2ccccc2)c1-n1cc(-c2cccnc2)nn1 [Entry 111, 3-(phenylethynyl)-2-(4-(pyridin-3-yl)-1H-1,2,3-triazol-1-yl)benzoic acid] | 10 to 100 µM
3 | O=C(O)c1cccc(C#Cc2ccccc2)c1-n1cc(CCCO)nn1 [Entry 112, 2-(4-(3-hydroxypropyl)-1H-1,2,3-triazol-1-yl)-3-(phenylethynyl)benzoic acid] | 10 to 100 µM
4 | CN(C)S(=O)(=O)NC(=O)c1cccc(C#Cc2ccccc2)c1-n1cccc1 [Entry 113, N-(Dimethylsulfamoyl)-3-(2-phenylethynyl)-2-(1H-pyrrol-1-yl)benzamide] | 1 to 10 µM
5 | CN(C)S(=O)(=O)NC(=O)c1cccc(C#Cc2ccc(F)cc2)c1-n1cccc1 [Entry 114, N-(Dimethylsulfamoyl)-3-[2-(4-fluorophenyl)ethynyl]-2-(1H-pyrrol-1-yl)benzamide] | 1 to 10 µM
6 | O=C(NS(=O)(=O)N1CCOCC1)c1cccc(C#Cc2ccccc2)c1-n1cccc1 [Entry 115, N-(morpholine-4-sulfonyl)-3-(2-phenylethynyl)-2-(1H-pyrrol-1-yl)benzamide] | 100 to 1000 µM
7 | O=C(NS(=O)(=O)N1CCS(=O)(=O)CC1)c1cccc(C#Cc2ccccc2)c1-n1cccc1 [Entry 116] | 10 to 100 µM
8 | CS(=O)(=O)NC(=O)c1cccc(C#Cc2ccc(F)cc2)c1-n1cccc1 [Entry 117, 3-[2-(4-fluorophenyl)ethynyl]-N-methanesulfonyl-2-(1H-pyrrol-1-yl)benzamide] | 10 to 100 µM
9 | NS(=O)(=O)NC(=O)c1cccc(C#Cc2ccccc2)c1-n1cccc1 [Entry 118, 3-(phenylethynyl)-2-(1H-pyrrol-1-yl)-N-sulfamoylbenzamide] | 10 to 100 µM
10 | COc1ccc(-c2c(C#Cc3ccccc3)cccc2C(=O)O)cc1 [Entry 119, 2-(4-methoxyphenyl)-3-(2-phenylethynyl)benzoic acid] | 1 to 10 µM
11 | COc1cccc(-c2c(C#Cc3ccccc3)cccc2C(=O)O)c1 [Entry 120, 2-(3-methoxyphenyl)-3-(2-phenylethynyl)benzoic acid] | 1 to 10 µM
12 | COc1ccccc1-c1c(C#Cc2ccccc2)cccc1C(=O)O [Entry 121, 2-(2-methoxyphenyl)-3-(2-phenylethynyl)benzoic acid] | 10 to 100 µM
13 | O=C(O)c1cccc(C#Cc2ccccc2)c1-c1cnc2ccccc2c1 [Entry 122, 3-(2-phenylethynyl)-2-(quinolin-3-yl)benzoic acid] | 10 to 100 µM
14 | O=C(O)c1cccc(C#Cc2ccccc2)c1C1CC1 [Entry 123, 2-cyclopropyl-3-(2-phenylethynyl)benzoic acid] | 1 to 10 µM
15 | O=C(O)c1cccc(C#Cc2ccccc2)c1-c1ccccc1 [Entry 124, 2-phenyl-3-(2-phenylethynyl)benzoic acid] | 10 to 100 µM
16 | Cc1ccc(-c2c(C#Cc3ccccc3)cccc2C(=O)O)cc1 [Entry 125, 2-(4-methylphenyl)-3-(2-phenylethynyl)benzoic acid] | 1 to 10 µM
17 | COc1ccc(-c2c(C#Cc3ccccc3)cccc2C(=O)O)cn1 [Entry 126, 2-(6-methoxypyridin-3-yl)-3-(2-phenylethynyl)benzoic acid] | 10 to 100 µM
18 | CN(C)c1ccc(-c2c(C#Cc3ccccc3)cccc2C(=O)O)cn1 [Entry 127, 2-[6-(dimethylamino)pyridin-3-yl]-3-(2-phenylethynyl)benzoic acid] | 10 to 100 µM
19 | O=C(O)c1cccc(C#Cc2ccccc2)c1-c1cccc(CO)c1 [Entry 128, 2-[3-(hydroxymethyl)phenyl]-3-(2-phenylethynyl)benzoic acid] | 10 to 100 µM
20 | O=C(O)c1cccc(C#Cc2ccccc2)c1-c1ccc2cc[nH]c2c1 [Entry 129, 2-(1H-indol-6-yl)-3-(2-phenylethynyl)benzoic acid] | < 1 µM
21 | O=C(O)c1cccc(C#Cc2ccccc2)c1-c1ccc(CO)cc1 [Entry 130, 2-[4-(hydroxymethyl)phenyl]-3-(2-phenylethynyl)benzoic acid] | 10 to 100 µM
22 | O=C(O)c1cccc(C#Cc2ccccc2)c1-c1ccc2occc2c1 [Entry 131, 2-(1-benzofuran-5-yl)-3-(2-phenylethynyl)benzoic acid] | 10 to 100 µM
23 | O=C(O)c1cccc(C#Cc2ccccc2)c1-c1ccc2sccc2c1 [Entry 132, 2-(1-benzothiophen-5-yl)-3-(2-phenylethynyl)benzoic acid] | 10 to 100 µM
24 | Cn1ccc2cc(-c3c(C#Cc4ccccc4)cccc3C(=O)O)ccc21 [Entry 133, 2-(1-methyl-1H-indol-5-yl)-3-(2-phenylethynyl)benzoic acid] | 1 to 10 µM
25 | CS(=O)(=O)Nc1cccc(-c2c(C#Cc3ccccc3)cccc2C(=O)O)c1 [Entry 134, 2-(3-methanesulfonamidophenyl)-3-(2-phenylethynyl)benzoic acid] | 1 to 10 µM

Row | SMILES | IC50
26 | O=C(O)c1cccc(C#Cc2ccccc2)c1-c1ccc2ccccc2c1 [Entry 135, 2-(naphthalen-2-yl)-3-(2-phenylethynyl)benzoic acid] | 1 to 10 µM
27 | Cn1ccc2ccc(-c3c(C#Cc4ccccc4)cccc3C(=O)O)cc21 [Entry 136, 2-(1-methyl-1H-indol-6-yl)-3-(2-phenylethynyl)benzoic acid] | 1 to 10 µM
28 | O=C(O)c1cccc(C#Cc2ccccc2)c1-c1ccccc1S(=O)(=O)NCCO [Entry 137, 2-{2-[(2-hydroxyethyl)sulfamoyl]phenyl}-3-(2-phenylethynyl)benzoic acid] | 10 to 100 µM
29 | O=C(NC1CC1)c1ccc(-c2c(C#Cc3ccccc3)cccc2C(=O)O)cc1 [Entry 138, 2-[4-(cyclopropylcarbamoyl)phenyl]-3-(2-phenylethynyl)benzoic acid] | 10 to 100 µM
30 | Cn1ncc2ccc(-c3c(C#Cc4ccccc4)cccc3C(=O)O)cc21 [Entry 139, 2-(1-methyl-1H-indazol-6-yl)-3-(2-phenylethynyl)benzoic acid] | 10 to 100 µM
31 | O=C(O)c1cccc(C#Cc2cccc(O)c2)c1-c1cnc2ccccc2c1 [Entry 140, 3-((3-hydroxyphenyl)ethynyl)-2-(quinolin-3-yl)benzoic acid] | 1 to 10 µM
32 | O=C(O)c1cccc(C#CCCCO)c1-c1cnc2ccccc2c1 [Entry 141, 3-(5-hydroxypent-1-ynyl)-2-(quinolin-3-yl)benzoic acid] | 10 to 100 µM
33 | COc1ccc(C#Cc2cccc(C(=O)O)c2-c2cnc3ccccc3c2)cc1 [Entry 142, 3-((4-methoxyphenyl)ethynyl)-2-(quinolin-3-yl)benzoic acid] | 10 to 100 µM
34 | O=C(O)c1cccc(C#Cc2cnc3cnccn23)c1-c1cnc2ccccc2c1 [Entry 143, 3-(imidazo[1,2-a]pyrazin-3-ylethynyl)-2-(quinolin-3-yl)benzoic acid] | 1 to 10 µM
35 | COC/C=C/c1cccc(C(=O)O)c1-n1cccc1 [Entry 144, 3-[(1E)-3-methoxyprop-1-en-1-yl]-2-(1H-pyrrol-1-yl)benzoic acid] | 1 to 10 µM
36 | O=C(O)c1cccc(/C=C/c2ccccc2)c1-n1cccc1 [Entry 145, 3-[(E)-2-phenylethenyl]-2-(1H-pyrrol-1-yl)benzoic acid] | 10 to 100 µM
37 | O=C(O)c1cccc(/C=C/c2ccc(F)cc2)c1-n1cccc1 [Entry 146, 3-[(E)-2-(4-fluorophenyl)ethenyl]-2-(1H-pyrrol-1-yl)benzoic acid] | 10 to 100 µM
38 | O=C(O)c1cccc(CCc2ccccc2)c1-n1cccc1 [Entry 147, 3-(2-phenylethyl)-2-(1H-pyrrol-1-yl)benzoic acid] | 10 to 100 µM
39 | O=C(O)c1cccc(CCc2ccccc2)c1N1CCCC1 [Entry 148, 3-(2-phenylethyl)-2-(pyrrolidin-1-yl)benzoic acid] | 10 to 100 µM
40 | O=C(O)c1cccc(CCc2ccc(F)cc2)c1-n1cccc1 [Entry 149, 3-[2-(4-fluorophenyl)ethyl]-2-(1H-pyrrol-1-yl)benzoic acid] | 10 to 100 µM
41 | O=C(O)c1cccc(C#Cc2ccccc2)c1-c1ccc2nc[nH]c2c1 [Entry 150, 2-(1H-1,3-benzodiazol-6-yl)-3-(2-phenylethynyl)benzoic acid] | 10 to 100 µM
42 | NS(=O)(=O)c1cccc(C#Cc2ccccc2)c1-n1cccc1 [Entry 152, 3-Phenylethynyl-2-pyrrol-1-yl-benzenesulfonamide] | 1 to 10 µM
43 | CC(=O)NS(=O)(=O)c1cccc(C#Cc2ccccc2)c1-n1cccc1 [Entry 153, N-Acetyl-3-phenylethynyl-2-pyrrol-1-yl-benzenesulfonamide] | 10 to 100 µM
44 | Cc1noc(C)c1-c1c(C#Cc2ccccc2)cccc1C(=O)O [Entry 154, 2-(dimethyl-1,2-oxazol-4-yl)-3-(2-phenylethynyl)benzoic acid] | 1 to 10 µM
45 | O=C(O)c1cccc(C#Cc2ccccc2)c1OCc1ccccc1 [Entry 155, 2-(benzyloxy)-3-(2-phenylethynyl)benzoic acid] | 10 to 100 µM
46 | COC(=O)c1c[nH]c2cc(-c3c(C#Cc4ccccc4)cccc3C(=O)O)ccc12 [Entry 156, 2-[3-(methoxycarbonyl)-1H-indol-6-yl]-3-(2-phenylethynyl)benzoic acid] | 1 to 10 µM
47 | O=C(O)c1cccc(C#CCNCc2ccccc2)c1-c1ccccc1 [Entry 157, 3-[3-(benzylamino)prop-1-yn-1-yl]-2-phenylbenzoic acid] | 10 to 100 µM
48 | O=C(O)c1cccc(C#CCNCCCn2ccnc2)c1-c1ccccc1 [Entry 158, 3-(3-{[3-(1H-imidazol-1-yl)propyl]amino}prop-1-yn-1-yl)-2-phenylbenzoic acid] | 10 to 100 µM
49 | O=C(O)c1cccc(C#CCN2CCN(c3ccccc3)CC2)c1-c1ccccc1 [Entry 159, 2-phenyl-3-[3-(4-phenylpiperazin-1-yl)prop-1-yn-1-yl]benzoic acid] | 10 to 100 µM

Source: US10421718B2, “EBNA1 inhibitors and their method of use” (priority 2013, dated 2019)
